In PubChem BioAssay AID1963860 (Molecular Pharmacology Branch, DTP, NCI, 2024):
Several values for one entry are separate records, joined by “and”; a condition that tells them apart may be missing. Equal entries are not always repeated.

Test system: CN0375-F725-PDC KRAS spheroid viability
Experiment: Anticancer human tumor CN0375-F725-PDC patient-derived colon carcinoma cell line growth inhibition [KRAS2]
Details: spheroids with HUVEC and MSC; for viability, T/C: stronger effect = lower value
Method in brief: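 Combination screen of spheroid viability in tumor-cell co-cultures with endothelial (HUVEC) and mesenchymal stem cell stroma. Each agent was tested in half-log dilutions, topping at clinical Cmax or at 10 microM without a known Cmax.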

[1] = curve of first compound, second compound 0.1 µM
[2] = curve of first compound, second compound 0.316 µM
[3] = curve of first compound, second compound 1 µM
[4] = curve of first compound, second compound 3.16 µM
[5] = second compound 0.1 µM, first compound 0.0316 µM
[6] = second compound 0.1 µM, first compound 0.1 µM
[7] = second compound 0.1 µM, first compound 0.316 µM
[8] = second compound 0.1 µM, first compound 1 µM
[9] = second compound 0.1 µM, first compound 3.16 µM
[10] = second compound 0.316 µM, first compound 0.0316 µM
[11] = second compound 0.316 µM, first compound 0.1 µM
[12] = second compound 0.316 µM, first compound 0.316 µM
[13] = second compound 0.316 µM, first compound 1 µM
[14] = second compound 0.316 µM, first compound 3.16 µM
[15] = second compound 1 µM, first compound 0.0316 µM
[16] = second compound 1 µM, first compound 0.1 µM
[17] = second compound 1 µM, first compound 0.316 µM
[18] = second compound 1 µM, first compound 1 µM
[19] = second compound 1 µM, first compound 3.16 µM
[20] = second compound 3.16 µM, first compound 0.0316 µM
[21] = second compound 3.16 µM, first compound 0.1 µM
[22] = second compound 3.16 µM, first compound 0.316 µM
[23] = second compound 3.16 µM, first compound 1 µM
[24] = second compound 3.16 µM, first compound 3.16 µM
[25] = curve of first compound, second compound 10 µM
[26] = second compound 0.1 µM, first compound 0.01 µM
[27] = second compound 0.316 µM, first compound 0.01 µM
[28] = second compound 1 µM, first compound 0.01 µM
[29] = second compound 3.16 µM, first compound 0.01 µM
[30] = second compound 10 µM, first compound 0.01 µM
[31] = second compound 10 µM, first compound 0.0316 µM
[32] = second compound 10 µM, first compound 0.1 µM
[33] = second compound 10 µM, first compound 0.316 µM
[34] = second compound 10 µM, first compound 1 µM
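Further: spheroids exposed to agents for 7 days.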

SMILES	IC50 [1] [µM]	IC50 [2] [µM]	IC50 [3] [µM]	IC50 [4] [µM]	viability, T/C [5] [%]	viability, T/C [6] [%]	viability, T/C [7] [%]	viability, T/C [8] [%]	viability, T/C [10] [%]	viability, T/C [11] [%]	viability, T/C [12] [%]	viability, T/C [13] [%]	viability, T/C [15] [%]	viability, T/C [16] [%]	viability, T/C [17] [%]	viability, T/C [18] [%]	viability, T/C [20] [%]	viability, T/C [21] [%]	viability, T/C [22] [%]	viability, T/C [23] [%]	further results
CCNC(=O)CC1N=C(c2ccc(Cl)cc2)c2cc(OC)ccc2-n2c(C)nnc21 (stereo not drawn) + C=CC(=O)N1CCN(c2nc(OCC3CCCN3C)nc3c2CCN(c2cccc4cccc(C)c24)C3)CC1CC#N	> 10	> 10	6.11	< 0.0316	101	92.8	81.4	78.6	97.1	88.6	77.8	75.1	88.1	85.6	73.3	65.6	30.2	28	15.5	1.05	IC50 (curve of first compound, second compound 0.0316 µM): > 10 µM; viability, T/C (second compound 0.0316 µM, first compound 0.0316 µM): 97.8%; viability, T/C (second compound 0.0316 µM, first compound 0.1 µM): 96.6%; viability, T/C (second compound 0.0316 µM, first compound 0.316 µM): 83.2%; viability, T/C (second compound 0.0316 µM, first compound 1 µM): 83%; viability, T/C (second compound 0.0316 µM, first compound 3.16 µM): 69.3%; viability, T/C (second compound 0.0316 µM, first compound 10 µM): 54%; viability, T/C [9]: 67.2%; viability, T/C (second compound 0.1 µM, first compound 10 µM): 53.2%; viability, T/C [14]: 68.4%; viability, T/C (second compound 0.316 µM, first compound 10 µM): 53.8%; viability, T/C [19]: 60.1%; viability, T/C (second compound 1 µM, first compound 10 µM): 43.4%; viability, T/C [24]: 13.8%; viability, T/C (second compound 3.16 µM, first compound 10 µM): 6.65%
CC1COCCN1c1cc(-c2ccnn2C)c2ccnc(-c3ccn[nH]3)c2n1 (stereo not drawn) + CC1OCC2(CCN(c3cnc(Sc4ccnc(N)c4Cl)c(N)n3)CC2)C1N	> 3.16	> 3.16	> 3.16	1.76	91.7	84.1	77.1	67.5	92.8	74.3	72.9	65.1	82.7	73.3	70.7	62.1	76.8	68.3	59.3	54.2	IC50 [25]: 0.614 µM; viability, T/C [26]: 107%; viability, T/C [9]: 56.2%; viability, T/C [27]: 90.7%; viability, T/C [14]: 51.3%; viability, T/C [28]: 88.2%; viability, T/C [19]: 48.6%; viability, T/C [29]: 81.4%; viability, T/C [24]: 46.4%; viability, T/C [30]: 69.7%; viability, T/C [31]: 74.8%; viability, T/C [32]: 62.5%; viability, T/C [33]: 53.2%; viability, T/C [34]: 49.2%; viability, T/C (second compound 10 µM, first compound 3.16 µM): 39.6%
CCN1CCN(Cc2ccc(Nc3ncc(F)c(-c4cc(F)c5nc(C)n(C(C)C)c5c4)n3)nc2)CC1 + COc1cc2nc(C)nc(NC(C)c3cc(N)cc(C(F)(F)F)c3)c2cc1OC1CCOC1	> 1	> 1	> 1	> 1	81.9	88.1	90.7	94.7	79.2	82	92.8	78	79.3	81.6	86.5	83	71.3	70.7	71.7	49.5	IC50 [25]: < 0.00316 µM; viability, T/C (second compound 0.1 µM, first compound 0.00316 µM): 96.4%; viability, T/C [26]: 89.7%; viability, T/C (second compound 0.316 µM, first compound 0.00316 µM): 93%; viability, T/C [27]: 91.2%; viability, T/C (second compound 1 µM, first compound 0.00316 µM): 91.1%; viability, T/C [28]: 85.3%; viability, T/C (second compound 3.16 µM, first compound 0.00316 µM): 84.3%; viability, T/C [29]: 79.9%; viability, T/C (second compound 10 µM, first compound 0.00316 µM): 14.6%; viability, T/C [30]: 14.5%; viability, T/C [31]: 13.4%; viability, T/C [32]: 15.4%; viability, T/C [33]: 6.49%; viability, T/C [34]: 0.9%
CC1OCC2(CCN(c3cnc(Sc4ccnc(N)c4Cl)c(N)n3)CC2)C1N (stereo not drawn)																					viability, T/C (compound 0.0316 µM): 98.4% and 98.5% and 100%; viability, T/C (compound 0.1 µM): 94.9% [middle of 19 runs]; viability, T/C (compound 0.316 µM): 89.6% [middle of 19 runs]; viability, T/C (compound 3.16 µM): 78.7% [middle of 20 runs]; IC50 (compound alone, run of 08/19/2021): > 10 µM; IC50 (compound alone, run of 08/26/2021): > 10 µM; IC50 (compound alone, run of 09/02/2021): > 10 µM; IC50 (curve of compound): > 10 µM
